According to PubChem BioAssay AID2060883 (Molecular Pharmacology Branch, DTP, NCI, 2025):

Test system: 843782-103-R-J1-PDC complex spheroid viability
Experiment: Anticancer human tumor 843782-103-R-J1-PDC patient-derived lung adenocarcinoma cell line growth inhibition [RAS]
Conditions: for IC50: curve of first compound; for viability, T/C: stronger effect = lower value
Procedure, shortened: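 Tumour cells grown as complex spheroids with HUVEC endothelial cells and mesenchymal stem cells, treated with RAS pathway inhibitor combinations. Each agent spans half-log steps from near clinical Cmax, or 10 microM where Cmax is unknown.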

[1] = second compound 0.000949 µM, first compound 0.0316 µM
[2] = second compound 0.000949 µM, first compound 0.1 µM
[3] = second compound 0.000949 µM, first compound 0.316 µM
[4] = second compound 0.000949 µM, first compound 1 µM
[5] = second compound 0.000949 µM, first compound 3.16 µM
[6] = second compound 0.000949 µM, first compound 10 µM
[7] = second compound 0.003 µM, first compound 0.0316 µM
[8] = second compound 0.003 µM, first compound 0.1 µM
[9] = second compound 0.003 µM, first compound 0.316 µM
[10] = second compound 0.003 µM, first compound 1 µM
[11] = second compound 0.003 µM, first compound 3.16 µM
[12] = second compound 0.003 µM, first compound 10 µM
[13] = second compound 0.00949 µM, first compound 0.0316 µM
[14] = second compound 0.00949 µM, first compound 0.1 µM
[15] = second compound 0.00949 µM, first compound 0.316 µM
[16] = second compound 0.00949 µM, first compound 1 µM
[17] = second compound 0.00949 µM, first compound 3.16 µM
[18] = second compound 0.00949 µM, first compound 10 µM
[19] = second compound 0.03 µM, first compound 0.0316 µM
[20] = second compound 0.03 µM, first compound 0.1 µM
[21] = second compound 0.03 µM, first compound 0.316 µM
[22] = second compound 0.03 µM, first compound 1 µM
[23] = second compound 0.03 µM, first compound 3.16 µM
[24] = second compound 0.03 µM, first compound 10 µM
[25] = second compound 0.0949 µM, first compound 0.0316 µM
[26] = second compound 0.0949 µM, first compound 0.1 µM
[27] = second compound 0.0949 µM, first compound 0.316 µM
[28] = second compound 0.0949 µM, first compound 1 µM
[29] = second compound 0.0949 µM, first compound 3.16 µM
[30] = second compound 0.0949 µM, first compound 10 µM
[31] = second compound 0.3 µM, first compound 0.0316 µM
[32] = second compound 0.3 µM, first compound 0.1 µM
[33] = second compound 0.3 µM, first compound 0.316 µM
[34] = second compound 0.3 µM, first compound 1 µM
[35] = second compound 0.3 µM, first compound 3.16 µM
[36] = second compound 0.3 µM, first compound 10 µM
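Further: viability read after seven days of compound exposure.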

CC(C)NCC(C(=O)N1CCN(c2ncnc3c2C(C)CC3O)CC1)c1ccc(Cl)cc1 (centres undefined) + CCn1c(-c2cc(N3CCN(C)CC3)cnc2C(C)OC)c2c3cc(ccc31)-c1csc(n1)CC(NC(=O)C1CC1C)C(=O)N1CCCC(N1)C(=O)OCC(C)(C)C2 gave an IC50 (second compound 0.000949 µM) of 511 nM, an IC50 (second compound 0.003 µM) of 242 nM and an IC50 (second compound 0.00949 µM) of under 31.6 nM. It also gave an IC50 (second compound 0.03 µM) of under 31.6 nM, an IC50 (second compound 0.0949 µM) of under 31.6 nM and an IC50 (second compound 0.3 µM) of under 31.6 nM. It also gave a viability, T/C [1] of 80.6%, a viability, T/C [2] of 73.9% and a viability, T/C [3] of 64.6%. For the same compound, the viability, T/C [4] was 30.4%, the viability, T/C [5] was 14.7% and the viability, T/C [6] was 6.49%. It also gave a viability, T/C [7] of 62.2%, a viability, T/C [8] of 63.7% and a viability, T/C [9] of 44.8%. For the same compound, the viability, T/C [10] was 25.8%, the viability, T/C [11] was 10.7% and the viability, T/C [12] was 5.07%. For the same compound, the viability, T/C [13] was 39.6%, the viability, T/C [14] was 38% and the viability, T/C [15] was 24.9%. It also gave a viability, T/C [16] of 15%, a viability, T/C [17] of 8.4% and a viability, T/C [18] of 4.07%. It also gave a viability, T/C [19] of 22.4%, a viability, T/C [20] of 25% and a viability, T/C [21] of 16.6%. For the same compound, the viability, T/C [22] was 9.92%, the viability, T/C [23] was 7.32% and the viability, T/C [24] was 2.47%. The viability, T/C [25] was 16.7%, the viability, T/C [26] was 18% and the viability, T/C [27] was 13.8%. For the same compound, the viability, T/C [28] was 8.39%, the viability, T/C [29] was 5.39% and the viability, T/C [30] was 2.13%. It also gave a viability, T/C [31] of 18%, a viability, T/C [32] of 14% and a viability, T/C [33] of 12.4%. It also gave a viability, T/C [34] of 7.41%, a viability, T/C [35] of 3.93% and a viability, T/C [36] of 1.56%.

Compound C[C@@H](NC(=O)c1ncnc(N)c1Cl)c1ncc(C(=O)Nc2cc(C(F)(F)F)c(Cl)cn2)s1 + CCn1c(-c2cccnc2C(C)OC)c2c3cc(ccc31)N1CCOC(CC(NC(=O)C(C(C)C)N(C)C(=O)C3(F)CCN(C(=O)C#CC(C)(C)N(C)C)CC3)C(=O)N3CCCC(N3)C(=O)OCC(C)(C)C2)C1 has an IC50 (second compound 0.000949 µM) of over 10000 nM, an IC50 (second compound 0.003 µM) of over 10000 nM and an IC50 (second compound 0.00949 µM) of over 10000 nM. The IC50 (second compound 0.03 µM) was over 10000 nM, the IC50 (second compound 0.0949 µM) was over 10000 nM and the IC50 (second compound 0.3 µM) was over 10000 nM. The viability, T/C [1] was 83.6%, the viability, T/C [2] was 84.5% and the viability, T/C [3] was 81.7%. The viability, T/C [4] was 79.2%, the viability, T/C [5] was 78.3% and the viability, T/C [6] was 79.2%. The viability, T/C [7] was 77.5%, the viability, T/C [8] was 80.8% and the viability, T/C [9] was 80.2%. For the same compound, the viability, T/C [10] was 75.2%, the viability, T/C [11] was 89.1% and the viability, T/C [12] was 82.1%. For the same compound, the viability, T/C [13] was 76.6%, the viability, T/C [14] was 88.9% and the viability, T/C [15] was 84.4%. For the same compound, the viability, T/C [16] was 80.3%, the viability, T/C [17] was 78.6% and the viability, T/C [18] was 77.5%. For the same compound, the viability, T/C [19] was 88.5%, the viability, T/C [20] was 83.4% and the viability, T/C [21] was 81.4%. For the same compound, the viability, T/C [22] was 79.7%, the viability, T/C [23] was 95.9% and the viability, T/C [24] was 68.2%. The viability, T/C [25] was 81.2%, the viability, T/C [26] was 86.1% and the viability, T/C [27] was 81.5%. For the same compound, the viability, T/C [28] was 79%, the viability, T/C [29] was 88.8% and the viability, T/C [30] was 75.3%. For the same compound, the viability, T/C [31] was 75.7%, the viability, T/C [32] was 82.7% and the viability, T/C [33] was 77.9%. The viability, T/C [34] was 75.4%, the viability, T/C [35] was 80.1% and the viability, T/C [36] was 76.7%.

For CC(Nc1ccc2c(c1)OCCn1cc(N3C(=O)OCC3C(F)F)nc1-2)C(N)=O (centres undefined), the viability, T/C (compound 0.0316 µM) was 95.9% [middle of 4 runs], the viability, T/C (compound 0.316 µM) was 50.3% [middle of 4 runs] and the viability, T/C (compound 1 µM) was 38.3% [middle of 4 runs]. For the same compound, the viability, T/C (compound 3.16 µM) was 26.1% [middle of 4 runs] and the viability, T/C (compound 10 µM) was 16.3% [middle of 4 runs].
